Assay results reported in patent publication US11076594B2, “Pyrazolone compound or salt thereof, preparation method therefor, herbicide composition and use thereof” (QINGDAO KINGAGROOT CHEMICAL COMPOUNDS CO., LTD., priority 2015, dated 2021).

Tests used:
Assay type in all cases: in vivo
rice = experiment: post-emergence stage experiment, crop (Table 1); design: key: Level 10: completely dead; Level 9: above 95% growth control rate; Level 8: above 90% growth control rate; Level 7: above 80% growth control rate; Level 6: above 70% growth control rate; Level 5: above 60% growth control rate; Level 4: above 50% growth control rate; Level 3: above 20% growth control rate; Level 2: 5%-20% growth control rate; Level 1: below 5% growth control rate; conditions: post-emergence spray at 4-5 leaf stage, 250 g/ha active ingredient with 450 kg/ha water, rated after 3 weeks in greenhouse
How it was run: (§1)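 Post-emergence spray: compounds dissolved in acetone, Tween 80 added, diluted with water, applied to plants at 4-5 leaf stage. Plants kept 3 wk in greenhouse; activity scored as fresh-weight control rate.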

wheat [1] = experiment: post-emergence stage experiment, crop (Table 1); conditions: post-emergence spray at 4-5 leaf stage, 250 g/ha active ingredient with 450 kg/ha water, rated after 3 weeks in greenhouse
How it was run: as §1

corn = experiment: post-emergence stage experiment, crop (Table 1); conditions: post-emergence spray at 4-5 leaf stage, 250 g/ha active ingredient with 450 kg/ha water, rated after 3 weeks in greenhouse
How it was run: as §1

flixweed = experiment: wheat field resistant broadleaf weed control, greenhouse spray at 4 leaf stage; design: key: Level 10: completely dead; Level 9: above 95% growth control rate; Level 8: above 90% growth control rate; Level 7: above 80% growth control rate; Level 6: above 70% growth control rate; Level 5: above 60% growth control rate; Level 4: above 50% growth control rate; Level 3: above 20% growth control rate; Level 2: 5%-20% growth control rate; Level 1: below 5% growth control rate; conditions: 250 g/ha of the active substance; 4 weeks after treatment; ALS inhibitor resistant
Protocol: (§2) The activity level standard of harmful plant destruction (i.e. growth control rate) is as follows:
(§3) The above described growth control rate is fresh weight control rate.
(§4) The seeds of alopecurus japonicas, flixweed, shepherd's purse, corn gromwell, chickweed, beckmannia syzigachne, and annual ryegrass and wheat seeds were put into a plastic pot loaded with soil, and then covered with 0.5-2 cm soil, the seeds were allowed to grow in good greenhouse environment. The test plants were treated at 4 leaf stage 2-3 weeks after sowing. The test compounds of the present invention were dissolved in acetone respectively, then added with methyl oleate emulsion and diluted by certain amount of water to certain concentration. The solution was sprayed to the plant with a sprayer. Then the plants were cultured for 4 weeks in greenhouse.

shepherd's purse = experiment: as above; design: key: Level 10: completely dead; Level 9: above 95% growth control rate; Level 8: above 90% growth control rate; Level 7: above 80% growth control rate; Level 6: above 70% growth control rate; Level 5: above 60% growth control rate; Level 4: above 50% growth control rate; Level 3: above 20% growth control rate; Level 2: 5%-20% growth control rate; Level 1: below 5% growth control rate; conditions: 250 g/ha of the active substance; 4 weeks after treatment; ALS inhibitor resistant
Protocol: as §2, §3, §4

chickweed = experiment: as above; design: key: Level 10: completely dead; Level 9: above 95% growth control rate; Level 8: above 90% growth control rate; Level 7: above 80% growth control rate; Level 6: above 70% growth control rate; Level 5: above 60% growth control rate; Level 4: above 50% growth control rate; Level 3: above 20% growth control rate; Level 2: 5%-20% growth control rate; Level 1: below 5% growth control rate; conditions: 250 g/ha of the active substance; 4 weeks after treatment; ALS inhibitor resistant
Protocol: as §2, §3, §4

corn gromwell = experiment: as above; design: key: Level 10: completely dead; Level 9: above 95% growth control rate; Level 8: above 90% growth control rate; Level 7: above 80% growth control rate; Level 6: above 70% growth control rate; Level 5: above 60% growth control rate; Level 4: above 50% growth control rate; Level 3: above 20% growth control rate; Level 2: 5%-20% growth control rate; Level 1: below 5% growth control rate; conditions: 250 g/ha of the active substance; 4 weeks after treatment; ALS inhibitor resistant
Protocol: as §2, §3, §4

wheat [2] = experiment: wheat field test, crop selectivity, greenhouse spray at 4 leaf stage; conditions: 250 g/ha of the active substance; 4 weeks after treatment
How it was run: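 Compounds in acetone were mixed with methyl oleate emulsion, diluted with water and applied with a sprayer to greenhouse plants at the 4 leaf stage. Growth control, expressed as fresh weight control rate, was assessed after 4 weeks of further culture.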

crab grass = experiment: weed control effect in post-emergence stage (Table 1); design: key: Level 10: completely dead; Level 9: above 95% growth control rate; Level 8: above 90% growth control rate; Level 7: above 80% growth control rate; Level 6: above 70% growth control rate; Level 5: above 60% growth control rate; Level 4: above 50% growth control rate; Level 3: above 20% growth control rate; Level 2: 5%-20% growth control rate; Level 1: below 5% growth control rate; conditions: post-emergence spray at 4-5 leaf stage, 250 g/ha active ingredient with 450 kg/ha water, rated after 3 weeks in greenhouse
How it was run: as §1

bidens bipinnata = experiment: as above; design: key: Level 10: completely dead; Level 9: above 95% growth control rate; Level 8: above 90% growth control rate; Level 7: above 80% growth control rate; Level 6: above 70% growth control rate; Level 5: above 60% growth control rate; Level 4: above 50% growth control rate; Level 3: above 20% growth control rate; Level 2: 5%-20% growth control rate; Level 1: below 5% growth control rate; conditions: post-emergence spray at 4-5 leaf stage, 250 g/ha active ingredient with 450 kg/ha water, rated after 3 weeks in greenhouse
How it was run: as §1

Indian mallow = experiment: as above; design: key: Level 10: completely dead; Level 9: above 95% growth control rate; Level 8: above 90% growth control rate; Level 7: above 80% growth control rate; Level 6: above 70% growth control rate; Level 5: above 60% growth control rate; Level 4: above 50% growth control rate; Level 3: above 20% growth control rate; Level 2: 5%-20% growth control rate; Level 1: below 5% growth control rate; conditions: post-emergence spray at 4-5 leaf stage, 250 g/ha active ingredient with 450 kg/ha water, rated after 3 weeks in greenhouse
How it was run: as §1

echinochloa = experiment: as above; design: key: Level 10: completely dead; Level 9: above 95% growth control rate; Level 8: above 90% growth control rate; Level 7: above 80% growth control rate; Level 6: above 70% growth control rate; Level 5: above 60% growth control rate; Level 4: above 50% growth control rate; Level 3: above 20% growth control rate; Level 2: 5%-20% growth control rate; Level 1: below 5% growth control rate; conditions: post-emergence spray at 4-5 leaf stage, 250 g/ha active ingredient with 450 kg/ha water, rated after 3 weeks in greenhouse
How it was run: as §1

rorippa indica = experiment: as above; design: key: Level 10: completely dead; Level 9: above 95% growth control rate; Level 8: above 90% growth control rate; Level 7: above 80% growth control rate; Level 6: above 70% growth control rate; Level 5: above 60% growth control rate; Level 4: above 50% growth control rate; Level 3: above 20% growth control rate; Level 2: 5%-20% growth control rate; Level 1: below 5% growth control rate; conditions: post-emergence spray at 4-5 leaf stage, 250 g/ha active ingredient with 450 kg/ha water, rated after 3 weeks in greenhouse
How it was run: as §1

foxtail = experiment: as above; design: key: Level 10: completely dead; Level 9: above 95% growth control rate; Level 8: above 90% growth control rate; Level 7: above 80% growth control rate; Level 6: above 70% growth control rate; Level 5: above 60% growth control rate; Level 4: above 50% growth control rate; Level 3: above 20% growth control rate; Level 2: 5%-20% growth control rate; Level 1: below 5% growth control rate; conditions: post-emergence spray at 4-5 leaf stage, 250 g/ha active ingredient with 450 kg/ha water, rated after 3 weeks in greenhouse
How it was run: as §1

SMILES	effect on crop, Rice (level) (rice)	effect on crop, Wheat (level) (wheat [1])	effect on crop, Corn (level) (corn)	flixweed weed controlling effect (activity level) (flixweed)	shepherd's purse weed controlling effect (activity level) (shepherd's purse)	chickweed weed controlling effect (activity level) (chickweed)	corn gromwell weed controlling effect (activity level) (corn gromwell)	Wheat (activity level, crop damage) (wheat [2])	weed control effect, Crab grass (level) (crab grass)	weed control effect, Bidens bipinnata (level) (bidens bipinnata)	weed control effect, Indian mallow (level) (Indian mallow)	weed control effect, Echinochloa (level) (echinochloa)	weed control effect, Rorippa indica (level) (rorippa indica)	weed control effect, Green foxtail (level) (foxtail)
CCn1ncc(C(=O)c2ccc(C(F)(F)F)c(N3CCCC3=O)c2Cl)c1O [Compound 096]	9 (Level 9: above 95% growth control rate)	1 (Level 1: below 5% growth control rate)	0	10	10	10	10	1 (Level 1: below 5% growth control rate)	5 (Level 5: above 60% growth control rate)	10	10	10	10	10
CCOc1c(C(=O)Oc2c(C(=O)c3ccc(C(F)(F)F)c(-n4cc(C)cn4)c3Cl)c(C)nn2C)cnn1C [Compound 086]	2 (Level 2: 5%-20% growth control rate)	0	0	10	10	10	10	0	4 (Level 4: above 50% growth control rate)	6 (Level 6: above 70% growth control rate)	10	5 (Level 5: above 60% growth control rate)	10	2 (Level 2: 5%-20% growth control rate)
CCn1nc(C2CC2)c(C(=O)c2ccc(C(F)(F)F)c(-n3cccn3)c2Cl)c1O [Compound 134]	10	1 (Level 1: below 5% growth control rate)	3 (Level 3: above 20% growth control rate)	10	10	10	10	1 (Level 1: below 5% growth control rate)	2 (Level 2: 5%-20% growth control rate)	9 (Level 9: above 95% growth control rate)	10	6 (Level 6: above 70% growth control rate)	10	10
Cc1nn(C)cc1C(=O)Oc1c(C(=O)c2ccc(C(F)(F)F)c(N3CCCCCC3=O)c2Cl)c(C)nn1C [Compound 058]	2 (Level 2: 5%-20% growth control rate)	0	1 (Level 1: below 5% growth control rate)	10	10	10	10	0	1 (Level 1: below 5% growth control rate)	4 (Level 4: above 50% growth control rate)	10	4 (Level 4: above 50% growth control rate)	10	1 (Level 1: below 5% growth control rate)
CCc1nn(C)c(O)c1C(=O)c1ccc(C(F)(F)F)c(-n2cc(C)cn2)c1Cl [Compound 140]	10	0	0	10	10	10	10	0	1 (Level 1: below 5% growth control rate)	8 (Level 8: above 90% growth control rate)	10	8 (Level 8: above 90% growth control rate)	10	7 (Level 7: above 80% growth control rate)
